Measurements published in patent US7576094B2, “Spiro derivatives as lipoxygenase inhibitors” (Eli Lilly and Company, priority 2004, dated 2009).

Columns and labels:
[1] = system: release of the leukotriene LTB4 from a neutrophil cell line (MPRO cell line); assay: LTB4-Cell Assay; type: cell-based; settings: Mus musculus, 1 h, read-out: inhibition of LTB4 with an EC50
Method in brief: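 Mouse promyelocytic cells differentiated to neutrophils with 10 μM all-trans retinoic acid for 72 h, then stimulated with 1 μM A23187 plus compound for 1 h at 37° C. Supernatant LTB4 quantified by competitive EIA; 5 concentrations in quadruplicate from 10 μM top.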

[2] = target: T1, porcine leukocyte 12/15-Lipoxygenase (Sus scrofa, UniProt P16469); assay: 12/15-Lipoxygenase Enzyme Assay; type: biochemical; settings: 70 μM arachidonic acid, 10 minute incubation at room temperature, FOX reagent, absorbance at 620 nm; read-out: inhibition of 12/15-Lipoxygenase with an IC50
T1 sequence (P16469 1-663): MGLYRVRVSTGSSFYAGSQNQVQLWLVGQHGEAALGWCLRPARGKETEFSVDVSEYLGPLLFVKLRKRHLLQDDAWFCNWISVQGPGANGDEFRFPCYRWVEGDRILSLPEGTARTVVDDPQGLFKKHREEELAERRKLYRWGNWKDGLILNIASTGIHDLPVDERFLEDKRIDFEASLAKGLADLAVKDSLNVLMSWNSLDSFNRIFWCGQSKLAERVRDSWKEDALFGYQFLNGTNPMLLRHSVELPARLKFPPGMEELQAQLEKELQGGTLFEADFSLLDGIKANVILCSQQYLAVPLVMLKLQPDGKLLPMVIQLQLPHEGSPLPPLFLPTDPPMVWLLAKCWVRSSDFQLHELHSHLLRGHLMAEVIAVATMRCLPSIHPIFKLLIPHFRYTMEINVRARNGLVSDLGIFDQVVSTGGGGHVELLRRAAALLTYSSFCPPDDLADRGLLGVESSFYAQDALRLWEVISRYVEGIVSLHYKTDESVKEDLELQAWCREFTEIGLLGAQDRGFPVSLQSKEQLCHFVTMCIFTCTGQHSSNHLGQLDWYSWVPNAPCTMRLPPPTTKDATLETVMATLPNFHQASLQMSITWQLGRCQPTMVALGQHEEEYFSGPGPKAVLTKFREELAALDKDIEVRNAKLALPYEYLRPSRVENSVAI
Source text: This procedure was used for measuring the enzymatic activity of porcine leukocyte 12/15-Lipoxygenase using a […] method based on the ferric oxidation of xylenol orange.
• 96 well flat bottom microfilter plates (VWR, Catalog # 62402-933 9295) • Lipoxygenase screening assay buffer (Cayman, Catalog # 760710) • Porcine leukocyte 12/15-Lipoxygenase (Cayman, Catalog # 60300) • Arachidonic Acid (Sigma, Catalog # A3555) • Xylenol orange tetrasodium salt (Aldrich, Catalog # 227854) • Iron (II) sulfate heptahydrate (Sigma, Catalog # F7002) • Sulfuric acid (95-98%) [18M] • Methanol Procedure
Porcine Leukocyte 12/15-Lipoxygenase (Cayman Cat # 60300) was used in this assay. Test compound and/or vehicle was added to 1.3 μL 12/15-Lipoxygenase in 50 mM Tris-HCl buffer, pH 7.4. The reaction was initiated by addition of 70 μM arachidonic acid in Tris-HCl buffer, pH 7.4, and terminated after a 10 minute incubation at room temperature by addition of FOX reagent (25 mM sulfuric acid, 100 μM xylenol orange, 100 μM iron (II) sulfate, methanol:water 9:1). The yellow color of acidified xylenol orange was converted to a blue color by the lipid hydroperoxide-mediated oxidation of Fe^2+ ions and the interaction of the resulting Fe^3+ ions with the dye. The complex was allowed to form during a 1 hour incubation at room temperature with shaking. Absorbance of the Fe^3+ complex was then measured at […] using a spectrophotometer.
Negative controls contained enzyme during the incubation step but substrate was not added until after the FOX reagent. Compounds are screened at 5 concentrations in triplicate starting at 10 μM

For `Cc1c(C)c2c(c(C)c1O)C1(CCC1)CC(C)(C)S2` [2′,2′,5′,7′,8′-pentamethyl-2′,3′-dihydrospiro[cyclobutane-1,4′-thiochromen]-6′-ol], the EC50 [1] was < 5 µM and the IC50 [2] was < 5 µM.
With `Cc1cc2c(c(C)c1O)C=CC1(CCC1)O2` [5,7-dimethylspiro[chromene-2,1′-cyclobutan]-6-ol] the EC50 [1] was < 5 µM and the IC50 [2] was < 5 µM.
With `CO/N=C1\CC2(CCC2)Sc2c(C)c(C)c(O)c(C)c21` [6′-hydroxy-5′,7′,8′-trimethylspiro[cyclobutane-1,2′-thiochroman]-4′(3′H)-one O-methyloxime] the EC50 [1] was < 5 µM and the IC50 [2] was < 5 µM.
With `Cc1c(C)c2c(c(Cl)c1O)CCC1(CCC1)O2` [5-chloro-7,8-dimethyl-3,4-dihydrospiro[chromene-2,1′-cyclobutan]-6-ol] the EC50 [1] was < 5 µM and the IC50 [2] was < 5 µM.
In the case of `Cc1c(C)c2c(c(C)c1O)C1(CCC1)CCS2` [5′,7′,8′-trimethyl-2′,3′-dihydrospiro[cyclobutane, 1,4′-thiochromen]-6′-ol], the EC50 [1] is reported as < 5 µM and the IC50 [2] is reported as < 5 µM.
With `Cc1c(O)c(C(C)(C)C)cc2c1CCC1(CCC1)O2` [7-tert-butyl-5-methyl-3,4-dihydrospiro[chromene-2,1′-cyclobutan]-6-ol] the EC50 [1] was < 5 µM and the IC50 [2] was < 5 µM.
For `CCO/N=C/C1=Cc2c(cc(C)c(O)c2C)OC12CCC2` [6-hydroxy-5,7-dimethylspiro[chromene-2,1′-cyclobutane]-3-carbaldehyde O-ethyloxime], the EC50 [1] was < 5 µM and the IC50 [2] was < 5 µM.
In the case of `CCONC1CC2(CCC2)Sc2c(C)c(C)c(O)c(C)c21` (centres unmarked) [4′-(ethoxyamino)-5′,7′,8′-trimethyl-3′,4′-dihydrospiro[cyclobutane-1,2′-thiochromen]-6′-ol], the EC50 [1] is reported as < 5 µM and the IC50 [2] is reported as < 5 µM.
For `Cc1cc2c(c(C)c1O)CC1(CCC1)CO2` [5,7-dimethylspiro[chroman-3,1′-cyclobutan]-6-ol], the EC50 [1] was < 5 µM and the IC50 [2] was < 5 µM.
In the case of `CONC1CC2(CCC2)Sc2cc(C)c(O)c(C)c21` (centres unmarked) [4′-(methoxyamino)-5′,7′-dimethyl-3′,4′-dihydrospiro[cyclobutane-1,2′-thiochromen]-6′-ol], the EC50 [1] is reported as < 5 µM and the IC50 [2] is reported as < 5 µM.
For `Cc1cc2c(c(C)c1O)CCC1(CCC1)O2` [5,7-dimethyl-3,4-dihydrospiro[chromene-2,1′-cyclobutan]-6-ol], the EC50 [1] was < 5 µM and the IC50 [2] was < 5 µM.
With `CCONC1CC2(CCC2)Sc2cc(C)c(O)c(C)c21` (centres unmarked) [4′-(ethoxyamino)-5′,7′-dimethyl-3′,4′-dihydrospiro[cyclobutane-1,2′-thiochromen]-6′-ol] the EC50 [1] was < 5 µM and the IC50 [2] was < 5 µM.
In the case of `Cc1c(O)cc2c(c1C)OC1(CCC1)CC2` [7,8-dimethyl-3,4-dihydrospiro[chromene-2,1′-cyclobutan]-6-ol], the EC50 [1] is reported as < 5 µM and the IC50 [2] is reported as < 5 µM.
In the case of `CCc1cc2c(c(CC)c1O)CC(CSCC(=O)OC)C1(CCC1)O2` (centres unmarked) [methyl 2-((5,7-diethyl-6-hydroxyspiro[chroman-2,1′-cyclobutane]-3-yl)methylthio)acetate], the EC50 [1] is reported as < 5 µM and the IC50 [2] is reported as < 5 µM.
With `COC(C)C1=Cc2c(C)c(O)c(C)c(C)c2OC12CCC2` (centres unmarked) [3-(1-methoxyethyl)-5,7,8-trimethylspiro[chromene-2,1′-cyclobutan]-6-ol] the EC50 [1] was < 5 µM and the IC50 [2] was < 5 µM.
For `Cc1c(C)c2c(c(C)c1O)CCC1(CC1)O2` [5,7,8-trimethyl-3,4-dihydrospiro[chromene-2,1′-cyclopropan]-6-ol], the EC50 [1] was < 5 µM and the IC50 [2] was < 5 µM.
`CC(C)(C)c1cc2c(cc1O)CCC1(CCC1)O2` [7-tert-butyl-3,4-dihydrospiro[chromene-2,1′-cyclobutan]-6-ol] was tested, and the EC50 [1] was < 5 µM and the IC50 [2] was < 5 µM.
`CCONCC1=Cc2c(cc(C)c(O)c2C)OC12CCC2` [3-[(ethoxyamino)methyl]-5,7-dimethylspiro[chromene-2,1′-cyclobutan]-6-ol] was tested, and the EC50 [1] was < 5 µM and the IC50 [2] was < 5 µM.
`CONC1CC2(CCC2)Sc2c(C)c(C)c(O)c(C)c21` (centres unmarked) [4′-(methoxyamino)-5′,7′,8′-trimethyl-3′,4′-dihydrospiro[cyclobutane-1,2′-thiochromen]-6′-ol] was tested, and the EC50 [1] was < 5 µM and the IC50 [2] was < 5 µM.
